From article PMC11857742, “Antiaging Potential of Lipophilic Extracts of Caulerpa prolifera” (Marine Drugs, 2025) come the findings set out here.

This assay has as its target T1, collagenase.
T1 construct: gene colG; usual product is native clostridial collagenase
Nature of the assay: FALGPA hydrolysis, ninhydrin detection at […] nm. The format is biochemical. Particulars: pH 7.4, 37 °C, TES, calcium chloride; chelates the metal cofactor.

For the compound `O=C(O)CN(CCN(CC(=O)O)CC(=O)O)CC(=O)O` [EDTA], the “Collagenase / IC50” value is recorded as 51.2 ± 0.12 µg/mL.
